# *1 amine or outer side, *2 acyl side, *3 side chain or, on linkers, in order; H or OH if unused. Where a SMILES comes first, the peptide text is derived from it. [ ]: non-standard residue; d: D form. The star is where a group is joined. hPhe = N[C@@H](CCc1ccccc1)C(=O)O; Morpholide = C1CN(*)CCO1; CO = O=C([*:1])[*:2]; CH2F = FC*
# Legend:
# [1] = system: Cathepsin L (relative to Plasmodium falciparum FP-2); assay: Selectivity index, ratio of Ki for inhibition of human Cathepsin L to Ki for inhibition of Plasmodium falciparum FP-2; type: toxicity; details: read-out: Ratio Ki
# [2] = target: T1, Falcipain 2 (Plasmodium falciparum, UniProt Q9N6S8); assay: Inhibition of Plasmodium falciparum FP-2 using Cbz-Leu-Arg-AMC as substrate and measured for 5 to 10 mins by fluorescence spectrophotometric analysis
# T1 sequence (Q9N6S8 whole entry): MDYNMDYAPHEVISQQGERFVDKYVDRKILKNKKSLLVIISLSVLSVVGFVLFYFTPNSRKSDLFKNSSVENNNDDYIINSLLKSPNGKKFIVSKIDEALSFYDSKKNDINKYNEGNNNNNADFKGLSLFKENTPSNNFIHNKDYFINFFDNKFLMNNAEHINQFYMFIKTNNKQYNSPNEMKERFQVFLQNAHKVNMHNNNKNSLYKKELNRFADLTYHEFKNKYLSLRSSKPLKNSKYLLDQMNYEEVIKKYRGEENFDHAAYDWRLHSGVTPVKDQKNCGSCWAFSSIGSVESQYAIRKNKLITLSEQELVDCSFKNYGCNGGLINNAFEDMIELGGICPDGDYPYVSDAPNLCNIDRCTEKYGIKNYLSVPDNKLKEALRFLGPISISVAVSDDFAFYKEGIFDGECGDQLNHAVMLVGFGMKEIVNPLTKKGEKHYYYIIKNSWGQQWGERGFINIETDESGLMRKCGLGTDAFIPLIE
# [3] = system: Cathepsin B (relative to Plasmodium falciparum FP-2); assay: Selectivity index, ratio of Ki for inhibition of human Cathepsin B to Ki for inhibition of Plasmodium falciparum FP-2; type: toxicity; details: read-out: Ratio Ki
# [4] = target: T1, Falcipain 2; assay: Inhibition of Plasmodium falciparum FP-2 using Z-Leu-Arg-AMC as substrate pretreated with enzyme for 30 mins followed by substrate addition and measured for 15 mins by spectrofluorometry
# [5] = system: Plasmodium falciparum; assay: Antiplasmodial activity against Plasmodium falciparum W2 infected in human erythrocytes assessed as inhibition of parasite growth measured after 48 hrs by flow cytometry; type: functional, organism-based; details: W2, Erythrocyte
# [6] = system: Plasmodium falciparum; assay: Antimalarial activity against Chloroquine-sensitive Plasmodium falciparum 3D7 infected in human erythrocytes assessed as inhibition of parasite growth incubated for 72 hrs by Giemsa staining based analysis; type: functional, organism-based; details: 3D7, Erythrocyte
# [7] = system: Plasmodium falciparum; assay: Antimalarial activity against chloroquine-sensitive Plasmodium falciparum 3D7 infected in RBC measured after 24 to 30 hrs by microscopic analysis; type: functional, organism-based; details: 3D7, Erythrocyte
# [8] = target: T1, Falcipain 2; assay: Inhibition of Plasmodium falciparum FP-2 using Cbz-Phe-Arg-AMC as substrate pretreated with enzyme for 10 mins followed by substrate addition and measured after 10 mins by fluorescence based analysis
# [9] = system: Plasmodium falciparum; assay: Antimalarial activity against chloroquine-resistant Plasmodium falciparum RKL9 infected in RBC measured after 24 to 30 hrs by microscopic analysis; type: functional, organism-based; details: RKL9, Erythrocyte
# [10] = system: Plasmodium falciparum; assay: Antimalarial activity against Chloroquine-resistant Plasmodium falciparum RKL9 infected in human erythrocytes assessed as inhibition of parasite growth incubated for 72 hrs by Giemsa staining based analysis; type: functional, organism-based; details: RKL9, Erythrocyte
# [11] = system: Heme; assay: Inhibition of heme (unknown origin) assessed as inhibition of hemozoin formation incubated for 24 hrs by FBIT test
# [12] = target: T1, Falcipain 2; assay: Inhibition of Plasmodium falciparum FP-2 using Z-Phe-Arg-AMC as substrate pretreated with enzyme for 10 mins followed by susbtrate addition and measured after 10 mins by fluorescence based analysis
# [13] = target: T2, Falcipain-3 (Plasmodium falciparum 3D7, UniProt Q8IIL0); assay: Inhibition of Plasmodium falciparum D10 trophozite lysates FP-3 pretreated with compound for 1 hr followed by labeling with Cy5-DCG04 for 1 hr by fluorescence scanning analysis; type: subcellular
# T2 sequence (Q8IIL0 whole entry): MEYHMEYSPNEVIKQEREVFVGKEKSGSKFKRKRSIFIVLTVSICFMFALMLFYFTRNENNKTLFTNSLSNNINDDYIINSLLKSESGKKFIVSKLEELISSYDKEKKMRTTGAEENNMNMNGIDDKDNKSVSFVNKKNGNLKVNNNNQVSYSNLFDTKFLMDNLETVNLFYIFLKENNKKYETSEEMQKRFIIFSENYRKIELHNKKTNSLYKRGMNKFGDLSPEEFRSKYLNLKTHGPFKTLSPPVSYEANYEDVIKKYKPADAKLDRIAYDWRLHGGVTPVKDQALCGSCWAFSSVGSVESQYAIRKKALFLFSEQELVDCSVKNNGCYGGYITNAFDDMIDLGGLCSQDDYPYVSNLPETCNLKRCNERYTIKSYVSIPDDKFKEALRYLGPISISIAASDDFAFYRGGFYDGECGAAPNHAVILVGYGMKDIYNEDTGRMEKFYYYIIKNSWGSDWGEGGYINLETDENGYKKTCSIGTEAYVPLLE
# [14] = target: T1, Falcipain 2; assay: Inhibition of Plasmodium falciparum trophozite extracts FP-2
# [15] = system: Plasmodium falciparum; assay: Antiplasmodial activity against Plasmodium falciparum HB3; type: functional, organism-based
# [16] = system: Plasmodium falciparum; assay: Antiplasmodial activity against Plasmodium falciparum W2; type: functional, organism-based
# [17] = system: Plasmodium falciparum; assay: Antiplasmodial activity against Plasmodium falciparum ItG; type: functional, organism-based
# [18] = system: Plasmodium falciparum; assay: Antiplasmodial activity against Plasmodium falciparum Dd2; type: functional, organism-based
# [19] = system: Plasmodium falciparum; assay: Antiplasmodial activity against Plasmodium falciparum D6; type: functional, organism-based
# [20] = Inhibition of Plasmodium vinckei extracts VP-2 using Z-phe-Arg-AMC as substrate pretreated with enzyme for 30 mins followed by substrate addition and measured for 30 mins by spectrofluorometry
smiles,measurement,setting,value
N#CCNC(=O)C1(NC(=O)OCc2ccccc2)CCCCC1,selectivity ratio,[1],22.1
same,Ki,[2],1200 nM
same,selectivity ratio,[3],> 100
COc1cc(OC)c(/C=C2\SC(=O)N(CC(=O)N3CCN(c4ccccc4)CC3)C2=O)c(OC)c1,IC50,[4],25500 nM
same,EC50,[5],450 nM
N#C/C(=C\c1cccc(Cl)c1)c1nc2ccccc2[nH]1,IC50,[6],24800 nM
C(=C\c1cn(-c2ccccc2)nc1-c1ccccc1)/c1nnc(-c2c[nH]c3ccccc23)o1,IC50,[7],0.245 µg/mL
same,IC50,[8],7000 nM
same,IC50,[9],0.724 µg/mL
N#C/C(=C\c1cccc(F)c1)c1nc2ccccc2[nH]1,IC50,[6],22200 nM
same,IC50,[10],53300 nM
N#C/C(=C\c1ccc([N+](=O)[O-])cc1)c1nc2ccccc2[nH]1,IC50,[6],68900 nM
Cc1ccc(-c2nn(-c3ccccc3)cc2/C=C/c2nnc(-c3ccc(Cl)cc3)o2)cc1,IC50,[7],0.486 µg/mL
same,IC50,[8],20000 nM
same,IC50,[9],1.57 µg/mL
Fc1ccc(-c2nn(-c3ccccc3)cc2/C=C/c2nnc(-c3c[nH]c4ccccc34)o2)cc1,IC50,[9],1.37 µg/mL
COc1cccc(/C=C(\C#N)c2nc3ccccc3[nH]2)c1,IC50,[6],690 nM
same,IC50,[10],3410 nM
same,IC50,[11],260 nM
same,IC50,[12],2210 nM
C(=C\c1cn(-c2ccccc2)nc1-c1ccccc1)/c1nnc(-c2ccco2)o1,IC50,[7],0.248 µg/mL
same,IC50,[8],14000 nM
same,IC50,[9],0.863 µg/mL
CC[C@H](C)[C@@H](C(=O)O[C@@H](CC(C)C)C(=O)N[C@@H](CC(C)C)C(=O)N[C@@H](C)/C=C/C(=O)N1C(=O)C=C(OC)[C@@H]1C)N(C)C [GALLINAMIDE A],IC50,[13],22 nM
N#C/C(=C\c1cccc([N+](=O)[O-])c1)c1nc2ccccc2[nH]1,IC50,[6],64800 nM
CC(C)C[C@H](NC(=O)N1CCOCC1)C(=O)N[C@@H](CCc1ccccc1)C(=O)CF ({Morpholide-CO}-Leu-[hPhe]-CH2F),IC50,[14],0.42 nM
O=C(CF)[C@H](CCc1ccccc1)NC(=O)[C@H](Cc1ccccc1)NC(=O)N1CCOCC1 ({Morpholide-CO}-Phe-[hPhe]-CH2F),IC50,[15],0.66 nM
same,IC50,[16],0.81 nM
same,IC50,[14],3 nM
same,IC50,[17],0.51 nM
same,IC50,[18],0.78 nM
same,IC50,[19],0.9 nM
CC(C)C[C@H](NC(=O)N1CCOCC1)C(=O)N[C@H](/C=C/S(=O)(=O)c1ccccc1)CCc1ccccc1,IC50,[15],1.6 nM
same,IC50,[16],1.2 nM
same,IC50,[17],1.03 nM
same,IC50,[18],0.66 nM
same,IC50,[20],200 nM
same,IC50,[19],1.51 nM
Cc1ccc(-c2nn(-c3ccccc3)cc2/C=C/c2nnc(-c3ccc(Cl)cc3Cl)o2)cc1,IC50,[7],0.486 µg/mL
same,IC50,[8],110000 nM
same,IC50,[9],0.902 µg/mL
COc1cc(/C=C(\C#N)c2nc3ccccc3[nH]2)cc(OC)c1,IC50,[6],1600 nM
same,IC50,[10],14300 nM
same,IC50,[12],3610 nM
